Converted amounts (≈) assume the structure as drawn. Where two headings read alike, the source gives them in different places.
Columns and labels:
HIV-1 NL432 = assay: Anti-HIV/SIV activity in infected Molt-4 cells, virus amount by RT activity; format: cell-based; settings: RT activity of supernatant at 5 days postinfection
Description: (§1) (1) Molt-4 cells (2×10^6 cells) were infected with HIV-1 NL432 (4×10^6 cpm), HIV-2 Rod (8×10^6 cpm), SIVmac MA239 (8×10^6 cpm) and SIVagm SA212 (8×10^6 cpm), and incubated for 1 hr at room temperature.
(§2) (1) Preparation of HIV-1 NL432: SW480 cells were cultured in DMEM medium supplemented with 10% fetal bovine serum using 25 cm^2 flask. HIV-1 infectious molecular DNA (40 μg), pNL432, transfected to the cells by calcium phosphate coprecipitation method, and the supernatant (2 ml) at 2-3 days post-transfection was infected to M8166 cells (1×10^6 cells). The cells were cultured in 10 ml RPMI medium supplemented with 10% fetal bovine serum in CO2 incubator at 37° C. After apparent giant cells were observed, the cells were removed by centrifugation and then the supernatant was filtrated by 0.45 μm filter, measured RT activity, and stored at −80° C. as HIV-1 stock virus.
(§3) (2) The cells were washed twice to remove the viruses and suspended in 10 ml RPMI medium supplemented with 10% fetal bovine serum. The infected cells (100 μl) were plated in 96 well microtiter plates containing with the serial 5 fold dilution of compounds (100 μl) and cultured in CO2 incubator at 37° C.
(§4) (3) The supernatant at 5 days postinfection was harvested and measured the amount of the virus by RT activity.
(§5) Preparation of the solution for RT assay:
(§6) A reaction mixture (90 μl) were contained 50 mM Tris-HCl, pH 8.3, 150 mM KCl, 10 mM MgCl2, 0.1% Nonidet P-40, 10 mM DTT (dithiothreitol), 5 μg/ml poly(rA), 5 μg/ml (dT)12-18 and 1 μCi [^3H] dTTP at final concentration after mixture of a sample (10 μl).
(§7) The procedure of RT assay:
(§8) 1. 10 μl of sample was plated to 3 wells of 96 well microtiter plate (triplicate assay).
(§9) 2. Reaction mixture (90 μl) chilled at 4° C. was added to each well, mixed and then incubate at 37° C. for 3 hrs.
(§10) 3. After incubation, the plate was chilled on ice, and passed through a DEAE-Filtermat using cell harvester. The filter was washed with 4.5% Na2HPO4 (20 sec) and H2O (10 sec).
(§11) 4. The filter was dried at 95° C. for 15 min.
(§12) 5. 10 ml of scintilator was added and sealed.
(§13) 6. Radioactivity was measured by LKB Beta Plate scintillation spectroscopy.
(§14) 7. RT activity (cpm/ml) was calculated from average of three wells.

HIV-2 Rod = assay: as above; format: cell-based; settings: RT activity of supernatant at 5 days postinfection
Description: as §1
(2) Preparation of […] Rod: HIV-2 Rod was infected to M8166 cells (1×10^6 cells). The cells were cultured in 10 ml RPMI medium supplemented with 10% fetal bovine serum in CO2 incubator at 37° C. After apparent giant cells were observed, the cells were removed by centrifugation and then the supernatant was filtrated by 0.45 μm filter, measured RT activity, and stored at −80° C. as HIV-2 stock virus.
as §3, §4, §5, §6, §7, §8, §9, §10, §11, §12, §13, §14

SIVmac MA239 = assay: as above; format: cell-based; settings: RT activity of supernatant at 5 days postinfection
Description: as §1
as §2, with “(3) Preparation” for “(1) Preparation”, “of SIVmac MA239:” for “of HIV-1 NL432:”, “flask. SIVmac MA239” for “flask. HIV-1”, “μg), pMA239,” for “μg), pNL432,”, “to CEMX174” for “to M8166”, “as SIVmac” for “as HIV-1”
as §3, §4, §5, §6, §7, §8, §9, §10, §11, §12, §13, §14

SIVagm SA212 = assay: as above; format: cell-based; settings: RT activity of supernatant at 5 days postinfection
Description: as §1
(4) Preparation of SIVagm SA212: SW480 cells were cultured in DMEM medium supplemented with 10% fetal bovine serum using 25 cm^2 flask. SIVagm SA212 infectious molecular DNA (40 μg), pSA212, transfected to the cells by calcium phosphate coprecipitation methods, and the supernatant (2 ml) at 2-3 days post-transfection was infected to M8166 cells (1×10^6 cells). The cells were cultured in 10 ml RPMI medium supplemented with 10% fetal bovine serum in CO2 incubator at 37° C. Every 3 days, the cells were separated from the supernatant by centrifugation and continued culture with new medium. The each supernatant was filtrated by 0.45 μm filter, measured RT activity, and stored at −80° C. as SIVagm stock virus.
as §3, §4, §5, §6, §7, §8, §9, §10, §11, §12, §13, §14

[1] = test system: feline immunodeficiency virus (FIV TM-2 strain); assay: Anti-FIV activity in MYA-1 feline T-cells, virus amount by RT activity; format: cell-based; settings: FIV TM-2 in MYA-1 cells, RT activity at 10 days postinfection
Description: (1) The serial 5 fold diluted samples were plated in 24 well microtiter plate. Feline T-cell lines (MYA-1 cells: 4×10^5 cells/well) and feline immunodeficiency virus (FIV TM-2 strain: 3000 cpm/well) were added to each well. The cells were cultured with 1.5 ml RPMI medium supplemented with 10% fetal bovine serum, 2 μg/ml polybrene, 100 unit/ml human recombinant IL-2 and 50 μM 2-mercaptoethanol in CO2 incubator at 37° C.
1. Preparation of FIV TM-2: FIV TM-2 was infected to MYA-1 cells (1×10^6 cells). The cells were cultured in 10 ml RPMI medium supplemented with 10% fetal bovine serum, 2 μg/ml polybrene, 100 unit/ml human recombinant IL-2 and 50 μM 2-mercaptoethanol in CO2 incubator at 37° C. Every 1-2 days, the cells were separated from the supernatant by centrifugation and continued culture with new medium. Each of the supernatant was filtrated by 0.45 μm filter, measured RT activity, and stored at as −80° C. as FIV stock virus.
(2) Every 1-2 days, the supernatants were measured the amount of the virus by RT activity (as same as experimental example 2).

HIV-1 integrase = HIV-1 integrase (Human immunodeficiency virus type 1 group M subtype B, UniProt P12497); assay: HIV-1 integrase inhibition assay (microtiter plate, substrate/target DNA, OD 405 nm)
Description: (2) Calculations of the Percent Inhibitions (the IC50 Values of Test Compounds)
Streptavidin, obtained from Vector Laboratories, was dissolved in 0.1 M carbonate buffer (composition: 90 mM Na2CO3, 10 mM NaHCO3) at concentration of 40 μg/ml. After coating each well of microtiter plates (obtained from NUNC) with 50 μl of the above solution at 4° C. over night, each well was washed twice with PBS (composition: 13.7 mM NaCl, 0.27 mM KCl, 0.43 mM Na2HPO4, 0.14 mM KH2PO4) and blocked with 300 μl of 1% skim milk in PBS for 30 min. Additionally, each well was washed twice with PBS and added 50 μl of substrate DNA solution (2 pmol/μl). The microtiter plates were kept at room temperature for 30 min. Then, each well was washed twice with PBS and once with H2O.
Subsequently, in the each well prepared above were added 45 μl of the reaction buffer prepared from 12 μl of the buffer (composition: 150 mM MOPS (pH 7.2), 75 mM MnCl2, 50 mM 2-mercaptoethanol, 25% glycerol, 500 μg/ml bovine serum albumin-fraction V), 1 μl of target DNA (5 pmol/μl), and 32 μl of the distilled water. Additionally, 6 μl of either a test compound in DMSO or DMSO for positive control(PC) was mixed with the above reaction buffer, then 9 μl of an integrase solution (30 pmol) was added and mixed well. In the well of negative control (NC) was added 9 μl of the integrase dilution buffer (composition: 20 mM MOPS (pH7.2), 400 mM potassium glutamate, 1 mM EDTA, 0.1% NP-40, 20% glycerol, 1 mM DTT, 4M urea).
The microtiter plates were incubated at 30° C. for 1 hour. The reaction solution was removed and each well was washed twice with PBS. Subsequently, each well of the microtiter plates was filled with 100 μl of anti-digoxigenin antibody labeled with alkaline phosphatase (Sheep Fab fragment: obtained from Boehringer) and incubated at 30° C. for 1 hour. Then, each well was washed twice with 0.05% Tween20 in PBS and once with PBS. Next, 150 μl of the Alkaline phosphatase reaction buffer (composition: 10 mM p-Nitrophenylphosphate (obtained from Vector Laboratories), 5 mM MgCl2, 100 mM NaCl, 100 mM Tris-HCl (pH 9.5))was added in each well. […] The optical density (OD) at 405 nm of each well was measured and the percent inhibition was determined by the following expression.
The percent inhibition (%)=100[1-{(C abs.−NC abs.)/(PC abs.−NC abs.)}]
C abs.; the OD of the well of the compounds
NC abs.: the OD of the negative control (NC)
PC abs.: the OD of the positive control (PC)
IC50(μg/ml)=x−{(X−50)(x−y)/(X−Y)}

[2] = Simian immunodeficiency virus, 120 h

Row | SMILES | melting point | IC50 (HIV-1 integrase) [nM] | also measured
1 | Nc1ccn([C@@H]2CS[C@H](CO)O2)c(=O)n1 [3TC] |  |  | Anti-HIV/SIV activity EC50, HIV-1 NL432 (HIV-1 NL432): 0.0084 µg/mL; Anti-HIV/SIV activity EC50, HIV-2 Rod (HIV-2 Rod): 0.022 µg/mL; Anti-HIV/SIV activity EC50, SIVmac (SIVmac MA239): 0.0091 µg/mL; Anti-HIV/SIV activity EC50, SIVagm (SIVagm SA212): 0.022 µg/mL
2 | Cc1cn([C@H]2C[C@H](N=[N+]=[N-])[C@@H](CO)O2)c(=O)[nH]c1=O [AZT] |  |  | Anti-HIV/SIV activity EC50, HIV-1 NL432 (HIV-1 NL432): 0.00051 µg/mL; Anti-HIV/SIV activity EC50, HIV-2 Rod (HIV-2 Rod): 0.00028 µg/mL; Anti-HIV/SIV activity EC50, SIVmac (SIVmac MA239): 0.00035 µg/mL; Anti-HIV/SIV activity EC50, SIVagm (SIVagm SA212): 0.00036 µg/mL; EC50 [1]: 0.048 µg/mL (≈ 0.18 µM)
3 | O=C(/C=C(\O)c1nc[nH]n1)c1ccc(Cc2ccc(F)cc2)o1 [I-42, 1-[5-(4-fluorobenzyl)furan-2-yl]-3-hydroxy-3-(1H-1,2,4-triazol-3-yl)-propenone] |  |  | EC50 ([1]; Feline immunodeficiency virus, T-cell, 240 h, read-out: EC50): 0.3 µg/mL (≈ 0.958 µM)
4 | O=C(C=C(O)c1nc[nH]n1)c1ccc(Cc2ccc(F)cc2F)o1 [I-74, 1-[5-(2,4-Difluorobenzyl)furan-2-yl]-3-hydroxy-3-(1H-1,2,4-triazol-3-yl)-propenone] | 171 to 173 °C | 1300 | 
5 | O=C(C=C(O)c1nc[nH]n1)c1ccc(Cc2ccccc2Cl)o1 [I-80, 1-[5-(2-Chlorobenzyl)furan-2-yl]-3-hydroxy-3-(1H-1,2,4-triazol-3-yl)-propenone] | 169 to 171 °C | 1610 | 
6 | O=C(C=C(O)c1nc[nH]n1)c1ccc(Cc2cccs2)o1 [I-83, 3-Hydroxy-1-[[5-(thiophen-2-yl)methyl]furan-2-yl]-3-(1H-1,2,4-triazol-3-yl)-propenone] | 207 to 208 °C | 4980 | 
7 | O=C(C=C(O)c1nc[nH]n1)c1ccc(Cc2ccsc2)o1 [I-85, 3-Hydroxy-1-[[5-(thiophen-3-yl)methyl]furan-2-yl]-3-(1H-1,2,4-triazol-3-yl)-propenone] | 210 to 211 °C | 4650 | 
8 | O=C(C=C(O)c1nc[nH]n1)c1cc(Cl)c(Cc2ccc(F)cc2)o1 [I-86, 1-[4-Chloro-5-(4-fluorobenzyl)furan-2-yl]-3-hydroxy-3-(1H-1,2,4-triazol-3-yl)-propenone] | 203 to 204 °C | 1440 | 
9 | O=C(C=C(O)c1nc[nH]n1)c1ccc(Cc2ccsc2Cl)o1 [I-91, 1-[[5-(2-Chlorothiophen-3-yl)methyl]furan-2-yl]-3-hydroxy-3-(1H-1,2,4-triazol-3-yl)-propenone] | 105 to 106 °C | 1790 | 
10 | O=C(C=C(O)c1nc[nH]n1)c1ccc(C(O)c2ccc(F)cc2)o1 (stereo not drawn) [I-94, 1-[5-(4-Fluorophenyl-hydroxy-methyl)furan-2-yl]-3-hydroxy-3-(1H-1,2,4-triazol-3-yl)-propenone] | 191 to 192 °C (dec.) | 4860 | 
11 | Cc1nc(C(O)=CC(=O)c2ccc(Cc3ccc(F)cc3)o2)cs1 [I-96, 1-[5-(4-Fluorobenzyl)furan-2-yl]-3-hydroxy-3-(2-methylthiazol-4-yl)-propenone] | 96 to 98 °C | 2450 | 
12 | COCc1nc(C(O)=CC(=O)c2ccc(Cc3ccc(F)cc3)o2)n[nH]1 [I-97] | 167 to 168 °C | 1710 | 
13 | CCc1nc(C(O)=CC(=O)c2ccc(Cc3ccc(F)cc3)o2)n[nH]1 [I-98, 3-(5-Ethyl-1H-1,2,4-triazol-3-yl)-1-[5-(4-fluorobenzyl)furan-2-yl]-3-hydroxy-propenone] | 204 to 205 °C | 1350 | 
14 | CC(C)c1nc(C(O)=CC(=O)c2ccc(Cc3ccc(F)cc3)o2)n[nH]1 [I-99, 1-[5-(4-Fluorobenzyl)furan-2-yl]-3-hydroxy-3-(5-isopropyl-1H-1,2,4-triazol-3-yl)-propenone] | 146 to 147 °C | 1860 | 
15 | Cn1ccnc1C(O)=CC(=O)c1ccc(Cc2ccc(F)cc2)o1 [I-100, 1-[5-(4-Fluorobenzyl)furan-2-yl]-3-hydroxy-3-(1-methyl-1H-imidazol-2-yl)-propenone] | 56 to 57 °C | 4900 | 
16 | CCCc1nc(C(O)=CC(=O)c2ccc(Cc3ccc(F)cc3)o2)n[nH]1 [I-112, 1-[5-(4-Fluorobenzyl)furan-2-yl]-3-hydroxy-3-(5-propyl-1H-1,2,4-triazol-3yl)-propenone] | 167 to 168 °C | 1720 | 
17 | O=C(C=C(O)c1nc[nH]n1)c1cnc(Cc2ccc(F)cc2)o1 [I-150, 1-[2-(4-Fluorobenzyl)oxazolyl-5-yl]-3-hydroxy-3-(1H-1,2,4-triazol-3-yl)-propenone] | 200 to 203 °C | 3120 | 
18 | CC(C)c1nc(COC(N)=O)n(Cc2ccncc2)c1Sc1cc(Cl)cc(Cl)c1 [S-1153] |  |  | Anti-HIV/SIV activity EC50, HIV-1 NL432 (HIV-1 NL432): 0.00077 µg/mL; Anti-HIV/SIV activity EC50, HIV-2 Rod (HIV-2 Rod): >4 µg/mL; Anti-HIV/SIV activity EC50, SIVmac (SIVmac MA239): >4 µg/mL; Anti-HIV/SIV activity EC50, SIVagm (SIVagm SA212): 1.5 µg/mL; EC50 [1]: >5 µg/mL
19 | Cc1cn([C@H]2C=C[C@@H](CO)O2)c(=O)[nH]c1=O [d4T] |  |  | Anti-HIV/SIV activity EC50, HIV-1 NL432 (HIV-1 NL432): 0.0061 µg/mL; Anti-HIV/SIV activity EC50, HIV-2 Rod (HIV-2 Rod): 0.0041 µg/mL; Anti-HIV/SIV activity EC50, SIVmac (SIVmac MA239): 0.0034 µg/mL; Anti-HIV/SIV activity EC50, SIVagm (SIVagm SA212): 0.0045 µg/mL
20 | Cc1ccnc2c1NC(=O)c1cccnc1N2C1CC1 [nevirapine] |  |  | EC50 (HIV-1 NL432; Human immunodeficiency virus 1, 120 h): 0.013 µg/mL (≈ 0.0488 µM); EC50 (HIV-2 Rod; Human immunodeficiency virus 2, 120 h): > 20 µg/mL; EC50 (SIVmac MA239; [2]): > 20 µg/mL; EC50 (SIVagm SA212; [2]): > 20 µg/mL

Reference: patent US6620841B1, “Aromatic heterocycle compounds having HIV integrase inhibiting activities” (Shionogi & Co., Ltd., priority 1998, dated 2003)
